Source: patent US6139840A, “Methods of eliciting an antibody response using flea protease proteins and homologs thereof” (priority 1997, dated 2000)
Read-outs that look alike come from different tables or passages of the source.

Tests used:
[1] = system: flea midgut proteases; assay: Protease substrate gel analysis of flea midguts with protease inhibitors in the incubation buffers; format: biochemical; conditions: for effect on protease activity in protease substrate gel: unfed and fed female midguts, AEBSF 1 mM, soybean trypsin inhibitor 100 μg/ml, leupeptin 10 μg/ml in all incubation buffers
Procedure: Protease substrate gels (available from Novex, San Diego, Calif., as Novex Zymogels) were 10% polyacrylamide-SDS gels with 0.1% gelatin. Samples and gels were processed according to Novex instructions. Briefly, samples were diluted in SDS-PAGE sample buffer without reducing agents. Tris-glycine SDS-PAGE was carried out by standard procedures. After electrophoresis, gels were incubated in 0.25% Triton X-100 at room temperature for 30 minutes (min), then in developing buffer (50 mM (millimolar) Tris-HCl pH 7.0, 5 mM CaCl2, 0.02% Brij 35, 0.2 M (molar) NaCl) at room temperature for 30 min, and then incubated with fresh developing buffer at 37° C., usually overnight. Gels were then stained 30 min in 0.5% coomassie R-250, 40% methanol, 10% acetic acid and destained in 40% methanol, 10% acetic acid.
Three unfed female midguts and 0.75 fed female midguts were evaluated in duplicate in several protease substrate gels. Each gel was cut in half. Half was processed as described in Example 2, while the other half contained protease inhibitors in all incubation buffers. The following inhibitors were evaluated:
Mixed-sex fed flea midguts were processed as described in U.S. Pat. No. 5,356,622, ibid. Aliquots of several steps of the procedure were evaluated by loading an equivalent of 0.4 midguts per lane of a protease substrate gel as described in Example 2. Samples were from the low speed supernatant (lanes 2 and 9), sonicated midguts (lanes 3 and 10), high speed supernatant (lanes 4 and 11), combined low and high speed supernatants (FGS) (lanes 5 and 12) and the high speed pellet (lanes 6 and 13). Lanes 7 and 8 contained 50 nanograms (ng) of trypsin as a control. Duplicate lanes were evaluated. The gel was cut in half, and lanes 1-7 were processed as described in Example 2, and lanes 8-14 were processed with 100 μg/ml soybean trypsin inhibitor in all the incubation buffers.

[2] = system: adult fleas; assay: Flea feeding system: viability and fecundity of fleas fed blood containing protease inhibitors; format: in vivo; conditions: for Adult Survival Female / Adult Survival Male / Adult Survival Total / Fecundity Days 1-7: percent of corresponding control group
Procedure: This Example evaluates the effect of a number of protease inhibitors on flea viability and fecundity in a flea feeding system as described by Wade et al. ibid.
Protease inhibitor compounds were tested in groups of 3 to 6 including appropriate control groups. Inhibitors were not tested in groups of common inhibition types. Rather, they were tested in groups based on the diluent needed to dissolve them. (AEBSF, aprotinin, bestatin, leupeptin, phosphoramidon, soybean trypsin inhibitor and soybean trypsin/chymotrypsin inhibitor were dissolved in water; E-64 and pepstatin were dissolved in ethanol). This reduced the number of control (diluent only) groups needed within a particular assay. Inhibitor concentrations were chosen such that the lower concentration used was within the range recommended by the supplier for that inhibitor. The higher concentration was typically 10 times above the lower concentration and was used to look for dose response.
The general protocol for all of the assays was as follows: Approximately 2000 newly emerged adult fleas were placed in feeding chambers to feed on normal blood for about 24 to 48 hr. The fleas were prefed for two reasons: The first was to be certain that only fleas that would feed in the feeding system were used in the comparative study.
The prefed fleas were placed in "minifeeder" feeding chambers at a ratio of about 80 female fleas to about 20 male fleas for a total of about 100 fleas per chamber. Actual total number of fleas per chamber varied from about 90 to 125 fleas. […] Three chambers were prepared for each experimental and control group. A fresh blood meal containing the appropriate inhibitor in 3 ml total volume was placed on each chamber daily through the 7 day extent of an assay.
On days 3, 5, and 7 of the assay, surviving adult fleas were transferred to clean chambers. The contents of the original chambers were dissolved in about 40 ml of PBS (phosphate-buffered saline) in a 50 ml Falcon tube. The contents of a given tube were then filtered through a preweighed #1 Whatman filter disk inserted into a vacuum filter. The 50 ml tube and the filter funnel were rinsed with distilled water which was then passed through the filter. Once the chamber contents had been filtered, dead adult fleas were removed from the filter paper and placed in a labelled tube so that they could be counted and sexed. The filter paper was then placed into a preweighed 12×75 polypropylene tube and dried in the SpeedVac for 2.5 hr with the heater on. After drying the filter paper was weighed. The weight of the filter paper and tube was subtracted to obtain the dry weight of the eggs and this value was converted to an estimated number of eggs using the formula y=41384.361x+162.37, where x=dry weight of eggs.
On day 7, adult fleas that had survived the study were frozen, counted and sexed. The numbers were added to the number of male and female fleas that had died during the assay to verify the number of male and female fleas in each chamber at the start of the study.
Female, male and total adult flea survival were calculated for all experimental and control groups on days 3, 5, and 7 of each assay. Additionally, the number of eggs per surviving female was calculated on days 3, 5 and 7. Female fleas found dead on a given collection date were included in the total number of egg-laying females for the days between that date and the previous collection date, providing a conservative estimate of fecundity. Fecundity values were averaged for the three collection dates to obtain an average for each group over 7 days.
Results of these studies are presented below in Table 1 and FIG. 6 through FIG. 9. All survival and fecundity values are presented below as a percent of control value.

[3] = system: flea aminopeptidase; assay: Leu-AMC cleavage by serine protease-depleted flea midgut lysate; format: biochemical
Procedure: The starting material for the isolation of a flea aminopeptidase was a flea midgut lysate preparation that had been depleted of serine proteases by passage over a benzamidine-Sepharose affinity column. To assay for aminopeptidase activity, the synthetic substrate L-Leucine-AMC (Leu-AMC), which releases a fluorescent AMC leaving group upon proteolytic cleavage, was incubated with the serine protease-depleted flea midgut preparation. Aminopeptidase activity was easily detectable with as little as 1.2 μg of lysate, both confirming the presence of an aminopeptidase (as indicated in other Examples herein) and allowing for the detection of aminopeptidase activity in fractions collected throughout subsequent fractionation and purification procedures.

[4] = system: soluble fed and unfed flea midgut preparations; format: biochemical; conditions: substrate BAPNA
Description: Pellets from the centrifugation step were also collected and resuspended for analysis. Also prepared were whole flea lysates.

[5] = system: leucine aminopeptidase; assay: Leu-AMC cleavage by control protease; format: biochemical; conditions: 10 mM EDTA, 86 μg/ml bestatin; substrate Leu-AMC
[6] = at the concentrations tested in blood meal

Molecule: CC(=O)N[C@@H](CC(C)C)C(=O)N[C@@H](CC(C)C)C(=O)N[C@H](C=O)CCCNC(=N)N [Leupeptin]
- effect on protease activity in protease substrate gel [1]: only inhibitors to have any effect
- reduction in adult viability ([2]; 5 μg/ml in blood meal, not statistically significant): 30%
- Adult Survival Female ([2]; 5 μg/ml in blood meal): 71.0%
- Adult Survival Male ([2]; 5 μg/ml in blood meal): 61.4%
- Adult Survival Total ([2]; 5 μg/ml in blood meal): 68.4%
- Fecundity Days 1-7 ([2]; 5 μg/ml in blood meal): 85.0%
- effect on adult viability ([2]; 50 μg/ml in blood meal): not affected
- Fecundity Days 1-7 ([2]; 50 μg/ml in blood meal): 77.6%
- effect on fecundity [2, 6]: no effect on fecundity
- inhibition of the flea protease that cleaved Leu-AMC [3]: Only bestatin inhibited

Molecule: O=S(=O)(F)Cc1ccccc1 [PMSF, phenylmethane-7-sulfonyl fluoride]
- inhibition of ability to cleave BAPNA (proteolytic activity) [4]: about 50%

Molecule: Cl.NCCc1ccc(S(=O)(=O)F)cc1 [AEBSF, 4-2-aminoethyl-benzenesulfonylfluoride-hydrochloride]
- effect on protease activity in protease substrate gel [1]: only inhibitors to have any effect
- Fecundity Days 1-7 ([2]; 0.3 mM in blood meal): 82.4%
- Fecundity Days 1-7 ([2]; 0.5 mM in blood meal): 95.0%
- Adult Survival Female ([2]; 5.0 mM in blood meal): 6.8%
- Adult Survival Male ([2]; 5.0 mM in blood meal): 0.0%
- Adult Survival Total ([2]; 5.0 mM in blood meal): 5.6%
- Fecundity Days 1-7 ([2]; 5.0 mM in blood meal): 1.4%
- Adult Survival Female ([2]; 6.0 mM in blood meal): 4.1%
- Adult Survival Male ([2]; 6.0 mM in blood meal): 0.0%
- Adult Survival Total ([2]; 6.0 mM in blood meal): 3.4%
- Fecundity Days 1-7 ([2]; 6.0 mM in blood meal): 17.2%
- reduction in flea fecundity ([2]; about 5 mM to about 6 mM in blood meal): more than 80%
- adult survival ([2]; about 5 mM to about 6 mM in blood meal, p<0.05): reduced to near zero

Molecule: Aprotinin
- inhibition of ability to cleave BAPNA (proteolytic activity) [4]: ~100%
- Adult Survival Female ([2]; 2 μg/ml in blood meal): 103.2%
- Adult Survival Male ([2]; 2 μg/ml in blood meal): 104.9%
- Adult Survival Total ([2]; 2 μg/ml in blood meal): 103.3%
- Fecundity Days 1-7 ([2]; 2 μg/ml in blood meal): 83.2%
- Adult Survival Female ([2]; 20 μg/ml in blood meal): 100.0%
- Adult Survival Male ([2]; 20 μg/ml in blood meal): 101.7%
- Adult Survival Total ([2]; 20 μg/ml in blood meal): 99.9%
- Fecundity Days 1-7 ([2]; 20 μg/ml in blood meal): 84.2%
- effect on adult viability [2, 6]: no significant effect
- effect on fecundity [2, 6]: no significant effect

Molecule: O=C(O)CN(CCN(CC(=O)O)CC(=O)O)CC(=O)O [EDTA, ethylenediaminetetraacetic acid]
- inhibition of the flea protease that cleaved Leu-AMC [3]: Only bestatin inhibited
- inhibition of the control protease [5]: inhibited

Molecule: CC(C)C[C@H](NC(=O)[C@@H](O)[C@H](N)Cc1ccccc1)C(=O)O [Bestatin]
- Fecundity Days 1-7 ([2]; 1.3 mM in blood meal): 60.4%
- reduction in fecundity ([2]; 1.3 mM in blood meal, significant (p<0.05)): 40%
- Fecundity Days 1-7 ([2]; 13.0 mM in blood meal): 23.3%
- reduction in fecundity ([2]; 13 mM in blood meal, significant (p<0.05)): 77%
- effect on adult viability [2, 6]: no significant effect on adult viability
- inhibition of the flea protease that cleaved Leu-AMC ([3]; 1 mM pefabloc, 1 mg/ml trypsin/chymotrypsin inhibitor, 1 mg/ml trypsin inhibitor, 1 mM TPCK, 1 μg/ml pepstatin, 10 μg/ml E-64, 10 μg/ml leupeptin, 10 mM EDTA, 86 μg/ml bestatin, lysate about 1.2 μg and about 12 μg): inhibited
- inhibition of the control protease [5]: inhibited

B1: Soybean Trypsin Inhibitor: serine protease inhibitor, available from Sigma (protein, UniProt P01070 25-205, looked up)
Trypsin inhibitor A: DFVLDNEGNPLENGGTYYILSDITAFGGIRAAPTGNERCPLTVVQSRNELDKGIGTIISSPYRIRFIAEGHPLSLKFDSFAVIMLCVGIPTEWSVVEDLPEGPAVKIGENKDAMDGWFRLERVSDDEFNNYKLVFCPQQAEDDKCGDIGISIDHDDGTRRLVVSKNKPLVVQFQKLDKESL
- inhibition of protease activity in protease substrate gel ([1]; mixed-sex fed flea midgut fractions, 100 μg/ml in all incubation buffers): majority of the activity was inhibited
- effect on protease activity in protease substrate gel [1]: only inhibitors to have any effect
- effect on fecundity ([2]; 10 μg/ml in blood meal): no effect
- Adult Survival Female ([2]; 10 μg/ml in blood meal): 80.1%
- Adult Survival Male ([2]; 10 μg/ml in blood meal): 101.7%
- Adult Survival Total ([2]; 10 μg/ml in blood meal): 83.9%
- Fecundity Days 1-7 ([2]; 10 μg/ml in blood meal): 96.1%
- Adult Survival Female ([2]; 100 μg/ml in blood meal): 76.5%
- Adult Survival Male ([2]; 100 μg/ml in blood meal): 76.0%
- Adult Survival Total ([2]; 100 μg/ml in blood meal): 76.3%
- Fecundity Days 1-7 ([2]; 100 μg/ml in blood meal): 79.1%
- reduction in fecundity ([2]; 100 μg/ml in blood meal, statistically insignificant): 20%
- inhibition of the flea protease that cleaved Leu-AMC [3]: Only bestatin inhibited
